Experimental data: ChEMBL document CHEMBL1201862, “PubChem BioAssay data set” (2004)
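48-hour exposure; five concentrations; linearly interpolated endpoints. GI50: concentration for 50% inhibition of growth.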 Activity calls are given as the source filed them. Cut-off read from the data, not from the text of the source: active = GI50 up to about 1.1 µM and inactive = higher.

How the values were obtained:
Test in all cases: NCI anticancer screen, dose series, 48 h
[1] = system: HOP-18
[2] = system: M19-MEL
[3] = system: MDA-MB-231
[4] = system: ACHN
[5] = system: PC-3
[6] = system: 786-0
[7] = system: LXFL 529
[8] = system: SNB-78
[9] = system: RXF 631

Measured: GI50

O=S(=O)(O)c1ccc(/N=N\c2ccc(/N=N\c3ccc(/C=C/c4ccc(/N=[N+](/[O-])c5ccc(/C=C/c6ccc(/N=N/c7ccc(/N=N\c8ccc(S(=O)(=O)O)cc8)cc7)cc6S(=O)(=O)O)c(S(=O)(=O)O)c5)cc4S(=O)(=O)O)c(S(=O)(=O)O)c3)cc2)cc1
inactive: [1] > 100 µM | [2] > 100 µM

CN1C[C@H]2[C@@H](C1=O)[C@H](c1ccc([N+](=O)[O-])cc1)ON2C
inactive: [3] > 100 µM | [4] > 100 µM | [5] > 100 µM

Cc1c(Cl)nc(Nc2nc3ccccc3[nH]2)nc1Cl
inactive: [6] 59.4 µM | [4] > 100 µM | [5] > 100 µM

c1ccc2c(c1)N=C(NC1CCCCC1)CCN2
inactive: [6] > 100 µM | [3] > 100 µM | [4] > 100 µM | [5] > 100 µM

O=C(Nc1ccc(Cl)cc1)C(=O)C(C(=O)c1ccccc1-c1ccccc1)C1OC(=O)c2ccccc21 (stereo unspecified)
inactive: [7] 16 µM | [8] > 100 µM | [4] 32.4 µM | [2] 19.4 µM

O=C(O)C1=C(CO)Oc2cc3c(cc2C1c1ccc2c(c1)OCO2)OCO3 (stereo unspecified)
inactive: [9] > 100 µM | [1] > 100 µM | [8] > 100 µM | [4] > 100 µM | [2] > 100 µM

CC(c1ccccc1)/[N+]([O-])=C/c1ccccc1 (stereo unspecified)
inactive: [7] > 100 µM | [1] 34.9 µM | [8] > 100 µM | [4] > 100 µM | [2] > 100 µM

Cc1cccc(C(O)c2ccccn2)c1O (stereo unspecified)
inactive: [3] > 100 µM | [4] > 100 µM | [5] > 100 µM

O=S(=O)(c1ccccc1)C1CC(c2nc3ccccc3[nH]2)=NO1 (stereo unspecified)
inactive: [3] > 100 µM | [4] > 100 µM | [5] > 100 µM

OC1CCSc2ccccc21 (stereo unspecified)
inactive: [7] > 100 µM | [1] > 100 µM | [4] > 100 µM | [2] > 100 µM

NNC(N)Nc1ccccc1 (stereo unspecified)
inactive: [3] > 100 µM | [4] > 100 µM | [5] > 100 µM

O=C(NC(Cc1ccc(I)cc1)C(=O)O)c1ccc(Cl)cc1 (stereo unspecified)
inactive: [1] > 100 µM | [8] > 100 µM | [2] > 100 µM

CC(C)=CC1CC(=O)C1(C)Sc1ccccc1 (stereo unspecified)
inactive: [9] 28 µM | [6] 50.7 µM | [7] 42.7 µM | [1] > 100 µM | [8] 60.1 µM | [4] > 100 µM | [2] 27.5 µM

Cc1cc(O)c(C(C)C)cc1SC#N
inactive: [3] 18.5 µM | [4] 16.2 µM | [5] 17.1 µM

OC(c1cccnc1Cl)c1nc2ccccc2c2ccnc(Cl)c12 (stereo unspecified)
inactive: [3] 7.82 µM | [4] 9.91 µM | [5] 2.11 µM

CCOC(=O)[C@H]1Nc2ccc(Cl)cc2[C@H]2c3ccccc3O[C@H]21
inactive: [9] > 100 µM | [6] > 100 µM | [7] 32.1 µM | [1] > 100 µM | [8] > 100 µM | [4] > 100 µM | [2] > 100 µM

CCOC(=O)c1c(NC(=O)Nc2ccccc2)c(C(N)=O)c2n1CCCCC2
inactive: [6] > 100 µM | [3] > 100 µM | [4] > 100 µM | [5] > 100 µM

CC(=O)OC[C@H]1[C@@H]2C(CC[C@]13CO3)OC(=O)CC(C)[C@]2(C)CCc1ccoc1 (stereo partly specified)
inactive: [3] > 100 µM | [4] > 100 µM | [5] > 100 µM

Nc1ccn(C2OC(CO)C(O)C2(F)F)c(=O)n1 (stereo unspecified)
active: [6] 0.055 µM | [3] 0.828 µM | [5] 0.885 µM

CCOC(=O)c1ccc(Nc2nc3cc(C(F)(F)F)ccc3nc2C(=O)OCC)cc1
inactive: [6] 25.4 µM | [3] 74.5 µM | [4] 42 µM | [5] 47.8 µM

CCN1c2ccccc2NC(=S)c2c(-c3ccccc3)n[nH]c21
inactive: [3] 19.3 µM | [4] 37.2 µM | [5] 25.6 µM

COC(=O)C1C(O)C(C)C(O)OC1C(C)C(O)C(C)/C=C\C=C(/C)C(=O)Nc1c(C)c(OC(C)=O)c2c(c1O)C(=O)C(C)=C1OCOC(/C(C)=C/C(C)=O)=C12 (stereo unspecified)
inactive: [1] 15.2 µM | [8] 13.2 µM | [2] 13.3 µM

COc1cc(C2S/C(=C/c3ccccc3)C(=O)N2c2cccc(NC(C)=O)c2)cc(OC)c1OC (stereo unspecified)
inactive: [3] 13.9 µM | [4] 37.2 µM | [5] 14.1 µM

O=C(O)c1cn2c3c(cc(N4CCN(CCO)CC4)cc3c1=O)SCC2
inactive: [1] > 79.3 µM | [8] > 79.8 µM | [2] > 80.7 µM

CCCCCCCCCCCCCCCCNCC(O)CN (stereo unspecified)
inactive: [1] 5.46 µM | [8] 2.48 µM | [2] 2.4 µM

O=Cc1c(Cn2ccnc2)c2cc([N+](=O)[O-])ccc2n1Cc1ccccc1
inactive: [1] > 25.8 µM | [8] > 72.4 µM | [2] > 69.2 µM

Cc1ccc(C2=C(C#N)C(N)OC3=C2COc2ccccc23)cc1 (stereo unspecified)
inactive: [3] 23.7 µM | [4] 35.2 µM | [5] 18.9 µM

C=C1C(=O)OC2/C=C(\C(=O)O)CC/C=C(\C)CC(OC(=O)/C=C(\C)CC)C12 (stereo unspecified)
inactive: [7] 16.9 µM | [1] 21.7 µM | [8] 23 µM | [4] 17 µM | [2] 15.6 µM

C[n+]1c2ccccc2n2c3ccccc3c(NCCCn3ccnc3)c(C#N)c21
inactive: [6] 2.04 µM | [3] 2.65 µM | [4] 3.48 µM | [5] 2.02 µM
